# What was measured:
# Cytochrome P450 2D6 = Cytochrome P450 2D6 (Homo sapiens, UniProt P10635); test: Inhibition of CYP2D6 (unknown origin); format: ADME
# [1] = system: Human immunodeficiency virus 1; test: Antiviral activity against HIV1 harboring Y181C mutant infected in human MT4 cells assessed as protection against virus-induced cytopathicity; format: functional, organism-based; conditions: Human immunodeficiency virus 1, MT4
# [2] = system: Human immunodeficiency virus 1; test: Antiviral activity against wild type HIV1 IIIB infected in human MT4 cells assessed as protection against virus-induced cytopathicity; format: functional, organism-based; conditions: Human immunodeficiency virus 1, IIIB
# [3] = Acute toxicity in mouse assessed as pathological changes in heart at 1000 mg/kg,IG administrated for 2 weeks by hematoxylin-eosin staining based analysis; format: organism-based; conditions: in vivo, po, 336 h
# [4] = Half life in Sprague-Dawley rat at 1 mg/kg,iv; format: ADME, organism-based; conditions: in vivo
# [5] = Acute toxicity in mouse assessed as pathological changes in lung at 1000 mg/kg,IG administrated for 2 weeks by hematoxylin-eosin staining based analysis; format: organism-based; conditions: in vivo, po, 336 h
# [6] = Acute toxicity in mouse assessed as death at 1000 mg/kg,IG administrated for 2 weeks; format: organism-based; conditions: in vivo, po, 336 h
# [7] = Acute toxicity in mouse assessed as pathological changes in liver at 1000 mg/kg,IG administrated for 2 weeks by hematoxylin-eosin staining based analysis; format: organism-based; conditions: in vivo, po, 336 h
# [8] = Acute toxicity in mouse assessed as increase in body weight at 1000 mg/kg,IG administrated for 2 weeks; format: organism-based; conditions: in vivo, po, 336 h
# [9] = AUC (0-infinity) in Sprague-Dawley rat at 1 mg/kg,iv; format: ADME, organism-based; design: dose 1 mg/kg, route iv; conditions: in vivo
# [10] = Selectivity index, ratio of CC50 for cytotoxicity against human MT4 cells to EC50 for antiviral activity against wild type HIV1 IIIB infected in human MT4 cells; format: toxicity, cell-based; conditions: read-out: Ratio CC50/EC50
# Cytochrome P450 3A4 [11] = target: T1, Cytochrome P450 3A4 (Homo sapiens, UniProt P08684); test: Inhibition of CYP3A4T (unknown origin); format: ADME
# [12] = Tmax in Sprague-Dawley rat at 1 mg/kg,iv; format: ADME, organism-based; conditions: in vivo
# [13] = Acute toxicity in mouse assessed as pathological changes in brain at 1000 mg/kg,IG administrated for 2 weeks by hematoxylin-eosin staining based analysis; format: organism-based; conditions: in vivo, po, 336 h
# [14] = Clearance in Sprague-Dawley rat at 1 mg/kg,iv; format: ADME, organism-based; conditions: in vivo
# [15] = system: Human immunodeficiency virus 1; test: Antiviral activity against HIV1 harboring E138K mutant infected in human MT4 cells assessed as protection against virus-induced cytopathicity; format: functional, organism-based; conditions: Human immunodeficiency virus 1, MT4
# Cytochrome P450 2C9 = Cytochrome P450 2C9 (Homo sapiens, UniProt P11712); test: Inhibition of CYP2C9 (unknown origin); format: ADME
# [16] = Cmax in Sprague-Dawley rat at 10 mg/kg,po; format: ADME, organism-based; design: dose 10 mg/kg, route po; conditions: in vivo
# Cytochrome P450 2C19 = Cytochrome P450 2C19 (Homo sapiens, UniProt P33261); test: Inhibition of CYP2C19 (unknown origin); format: ADME
# [17] = Acute toxicity in mouse assessed as behavioral abnormalities at 1000 mg/kg,IG administrated for 2 weeks; format: organism-based; conditions: in vivo, po, 336 h
# [18] = AUC (0-t) in Sprague-Dawley rat at 1 mg/kg,iv; format: ADME, organism-based; design: dose 1 mg/kg, route iv; conditions: in vivo
# [19] = Tmax in Sprague-Dawley rat at 10 mg/kg,po; format: ADME, organism-based; conditions: in vivo
# [20] = system: Human immunodeficiency virus 1; test: Antiviral activity against HIV1 harboring Y188L mutant infected in human MT4 cells assessed as protection against virus-induced cytopathicity; format: functional, organism-based; conditions: Human immunodeficiency virus 1, MT4
# [21] = Acute toxicity in mouse assessed as pathological changes in kidney at 1000 mg/kg,IG administrated for 2 weeks by hematoxylin-eosin staining based analysis; format: organism-based; conditions: in vivo, po, 336 h
# [22] = Apparent volume of distribution in Sprague-Dawley rat at 1 mg/kg,iv; format: ADME, organism-based; conditions: in vivo, read-out: Vz
# [23] = AUC (0-t) in Sprague-Dawley rat at 10 mg/kg,po; format: ADME, organism-based; design: dose 10 mg/kg, route po; conditions: in vivo
# [24] = system: Human immunodeficiency virus 1; test: Antiviral activity against HIV1 harboring K103 N mutant infected in human MT4 cells assessed as protection against virus-induced cytopathicity; format: functional, organism-based; conditions: Human immunodeficiency virus 1, MT4
# [25] = AUC (0-infinity) in Sprague-Dawley rat at 10 mg/kg,po; format: ADME, organism-based; design: dose 10 mg/kg, route po; conditions: in vivo
# [26] = Half life in Sprague-Dawley rat at 10 mg/kg,po; format: ADME, organism-based; conditions: in vivo
# Cytochrome P450 3A4 [27] = target: T1, Cytochrome P450 3A4; test: Inhibition of CYP3A4M (unknown origin); format: ADME
# [28] = target: Voltage-gated inwardly rectifying potassium channel KCNH2 (Homo sapiens, UniProt Q12809); test: Inhibition of human ERG potassium channel expressed in CHO cells by manual patch clamp method; format: toxicity, cell-based
# [29] = Acute toxicity in mouse assessed as pathological changes in spleen at 1000 mg/kg,IG administrated for 2 weeks by hematoxylin-eosin staining based analysis; format: organism-based; conditions: in vivo, po, 336 h
# [30] = target: Human immunodeficiency virus type 1 reverse transcriptase (Human immunodeficiency virus 1, UniProt Q72547); test: Inhibition of wild type HIV-1 reverse transcriptase assessed as inhibition of biotin deoxyuridine triphosphate incorporation into […]
# [31] = Cmax in Sprague-Dawley rat at 1 mg/kg,iv; format: ADME, organism-based; design: dose 1 mg/kg, route iv; conditions: in vivo
# [32] = Cytotoxicity against human MT4 cells assessed as reduction in cell viability; format: toxicity, cell-based
# [33] = Oral bioavailability in Sprague-Dawley rat at 10 mg/kg; format: ADME, organism-based; conditions: in vivo
# [34] = system: Human immunodeficiency virus 1; test: Antiviral activity against HIV1 harboring L100I mutant infected in human MT4 cells assessed as protection against virus-induced cytopathicity; format: functional, organism-based; conditions: Human immunodeficiency virus 1, MT4
# Cytochrome P450 1A2 = target: T2, Cytochrome P450 1A2 (Homo sapiens, UniProt P05177); test: Inhibition of CYP1A2 (unknown origin); format: ADME
# T2 sequence (P05177 whole entry): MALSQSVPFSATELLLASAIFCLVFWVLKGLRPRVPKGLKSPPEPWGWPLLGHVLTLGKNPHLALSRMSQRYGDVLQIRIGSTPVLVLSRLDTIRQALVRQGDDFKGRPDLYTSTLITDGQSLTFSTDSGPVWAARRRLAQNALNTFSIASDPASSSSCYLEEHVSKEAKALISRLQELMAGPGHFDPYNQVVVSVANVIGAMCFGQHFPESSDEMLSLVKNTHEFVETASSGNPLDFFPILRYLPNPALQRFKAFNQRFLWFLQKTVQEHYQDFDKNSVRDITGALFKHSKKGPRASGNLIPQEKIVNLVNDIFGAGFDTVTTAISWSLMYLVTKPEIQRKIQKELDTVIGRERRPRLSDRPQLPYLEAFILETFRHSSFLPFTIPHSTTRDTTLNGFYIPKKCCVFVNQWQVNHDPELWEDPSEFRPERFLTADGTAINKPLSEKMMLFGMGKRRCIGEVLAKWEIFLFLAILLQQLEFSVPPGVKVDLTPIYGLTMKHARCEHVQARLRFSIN
# T1 sequence (P08684 whole entry): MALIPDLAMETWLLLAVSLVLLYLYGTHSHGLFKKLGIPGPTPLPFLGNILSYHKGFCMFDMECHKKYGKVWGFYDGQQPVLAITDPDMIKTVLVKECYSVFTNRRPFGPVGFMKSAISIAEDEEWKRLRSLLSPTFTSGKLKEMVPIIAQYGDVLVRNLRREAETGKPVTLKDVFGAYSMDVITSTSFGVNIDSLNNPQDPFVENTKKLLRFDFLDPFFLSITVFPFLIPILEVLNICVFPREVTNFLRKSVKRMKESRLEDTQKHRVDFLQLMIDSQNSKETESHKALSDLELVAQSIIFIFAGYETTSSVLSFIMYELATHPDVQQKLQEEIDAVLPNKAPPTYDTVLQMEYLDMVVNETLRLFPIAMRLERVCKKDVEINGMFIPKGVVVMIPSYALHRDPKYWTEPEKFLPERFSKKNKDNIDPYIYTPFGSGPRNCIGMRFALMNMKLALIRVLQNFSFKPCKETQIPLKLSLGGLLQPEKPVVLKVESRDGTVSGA
# Chain of Cytochrome P450 2D6 (P10635 whole entry): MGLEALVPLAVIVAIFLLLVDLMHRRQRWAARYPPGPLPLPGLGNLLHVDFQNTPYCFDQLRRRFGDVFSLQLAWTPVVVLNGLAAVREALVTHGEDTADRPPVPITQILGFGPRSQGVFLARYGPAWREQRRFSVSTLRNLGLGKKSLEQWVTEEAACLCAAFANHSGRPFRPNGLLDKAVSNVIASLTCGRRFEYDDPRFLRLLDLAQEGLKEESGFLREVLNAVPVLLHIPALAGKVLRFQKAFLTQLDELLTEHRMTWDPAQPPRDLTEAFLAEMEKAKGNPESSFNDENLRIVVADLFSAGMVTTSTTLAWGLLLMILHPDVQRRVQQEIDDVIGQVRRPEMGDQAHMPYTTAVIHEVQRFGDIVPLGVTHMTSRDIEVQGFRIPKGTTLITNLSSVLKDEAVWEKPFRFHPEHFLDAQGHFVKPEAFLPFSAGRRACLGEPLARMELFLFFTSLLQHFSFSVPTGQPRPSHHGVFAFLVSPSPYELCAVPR
# Chain of Voltage-gated inwardly rectifying potassium channel KCNH2 (Q12809 whole entry): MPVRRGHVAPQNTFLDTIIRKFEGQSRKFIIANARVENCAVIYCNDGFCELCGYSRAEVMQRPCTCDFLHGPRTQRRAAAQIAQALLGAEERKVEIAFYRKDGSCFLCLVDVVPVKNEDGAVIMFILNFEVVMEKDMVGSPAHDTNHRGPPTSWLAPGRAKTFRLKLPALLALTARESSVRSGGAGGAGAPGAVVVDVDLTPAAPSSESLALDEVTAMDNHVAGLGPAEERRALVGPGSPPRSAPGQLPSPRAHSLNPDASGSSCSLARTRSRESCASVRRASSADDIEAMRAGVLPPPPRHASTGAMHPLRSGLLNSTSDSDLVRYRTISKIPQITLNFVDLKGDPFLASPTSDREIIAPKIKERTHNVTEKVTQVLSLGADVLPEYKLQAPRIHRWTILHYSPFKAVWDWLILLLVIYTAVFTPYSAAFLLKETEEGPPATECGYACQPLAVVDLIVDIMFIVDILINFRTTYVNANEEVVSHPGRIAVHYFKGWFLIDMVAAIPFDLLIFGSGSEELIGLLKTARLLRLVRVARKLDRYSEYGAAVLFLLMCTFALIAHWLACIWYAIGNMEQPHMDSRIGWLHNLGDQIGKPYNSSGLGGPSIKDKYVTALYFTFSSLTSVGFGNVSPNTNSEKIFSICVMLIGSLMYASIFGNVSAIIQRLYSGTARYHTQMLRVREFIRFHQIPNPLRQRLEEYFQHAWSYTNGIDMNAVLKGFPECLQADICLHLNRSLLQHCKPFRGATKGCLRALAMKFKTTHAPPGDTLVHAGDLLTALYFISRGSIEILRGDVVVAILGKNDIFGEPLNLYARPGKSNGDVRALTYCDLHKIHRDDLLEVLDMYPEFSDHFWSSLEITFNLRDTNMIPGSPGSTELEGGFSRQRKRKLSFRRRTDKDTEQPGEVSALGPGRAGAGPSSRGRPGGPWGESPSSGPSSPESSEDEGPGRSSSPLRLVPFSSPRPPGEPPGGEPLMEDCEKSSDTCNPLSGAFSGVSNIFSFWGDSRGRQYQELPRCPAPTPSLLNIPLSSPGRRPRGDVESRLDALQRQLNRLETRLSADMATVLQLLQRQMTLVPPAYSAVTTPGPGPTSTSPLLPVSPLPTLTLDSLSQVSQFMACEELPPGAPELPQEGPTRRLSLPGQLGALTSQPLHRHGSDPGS
# Chain of Cytochrome P450 2C19 (P33261 whole entry): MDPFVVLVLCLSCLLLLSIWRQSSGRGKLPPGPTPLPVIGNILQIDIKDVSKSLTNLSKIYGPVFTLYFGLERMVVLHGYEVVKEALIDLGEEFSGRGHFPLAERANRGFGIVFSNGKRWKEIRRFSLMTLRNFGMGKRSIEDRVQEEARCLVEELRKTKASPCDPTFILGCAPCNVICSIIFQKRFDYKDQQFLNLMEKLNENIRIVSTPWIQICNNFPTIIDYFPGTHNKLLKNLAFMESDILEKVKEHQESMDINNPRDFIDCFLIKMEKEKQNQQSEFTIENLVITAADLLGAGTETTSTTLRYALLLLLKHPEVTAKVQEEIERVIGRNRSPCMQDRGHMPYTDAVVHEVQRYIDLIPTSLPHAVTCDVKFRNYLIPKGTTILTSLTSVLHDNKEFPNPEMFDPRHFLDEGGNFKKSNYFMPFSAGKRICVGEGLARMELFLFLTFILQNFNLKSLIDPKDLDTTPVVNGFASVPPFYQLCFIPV
# Chain of Cytochrome P450 2C9 (P11712 whole entry): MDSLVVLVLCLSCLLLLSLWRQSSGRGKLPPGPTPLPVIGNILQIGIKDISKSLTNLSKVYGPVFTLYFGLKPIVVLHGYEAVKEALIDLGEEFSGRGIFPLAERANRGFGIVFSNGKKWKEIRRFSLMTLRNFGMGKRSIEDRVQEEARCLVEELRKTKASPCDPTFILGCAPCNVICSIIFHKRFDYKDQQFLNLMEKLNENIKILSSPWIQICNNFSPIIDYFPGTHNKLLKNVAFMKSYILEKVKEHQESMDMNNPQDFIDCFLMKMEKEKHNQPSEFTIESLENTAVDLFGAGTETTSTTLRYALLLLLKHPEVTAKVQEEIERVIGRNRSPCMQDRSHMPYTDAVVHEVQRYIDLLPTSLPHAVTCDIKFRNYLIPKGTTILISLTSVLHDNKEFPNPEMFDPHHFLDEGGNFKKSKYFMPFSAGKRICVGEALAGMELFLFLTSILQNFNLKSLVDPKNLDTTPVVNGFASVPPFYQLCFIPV
compound,measurement,setting,value
COc1ccc2c(c1)[C@]13CCCC[C@@H]1[C@H](C2)N(C)CC3 [DEXTROMETHORPHAN],IC50,Cytochrome P450 2D6,0.052 µM
O=c1[nH]c(=O)n(COCc2ccccc2)c(Sc2cc(F)ccc2F)c1C1CC1,EC50,[1],1.85 µM
same,EC50,[2],0.017 µM
same,Activity,[3],Non-Toxic
same,IC50,Cytochrome P450 2D6,> 50 µM
same,half-life,[4],30.8 min
same,Activity,[5],Non-Toxic
same,Activity,[6],Non-Toxic
same,Activity,[7],Non-Toxic
same,Activity,[8],Non-Toxic
same,AUC(0-inf),[9],1100 ng·h/mL
same,selectivity ratio,[10],2330
same,IC50,Cytochrome P450 3A4 [11],> 50 µM
same,Tmax,[12],4.98 min
same,Activity,[13],Non-Toxic
same,clearance,[14],15.6 mL/min/kg
same,EC50,[15],0.09 µM
same,IC50,Cytochrome P450 2C9,27.6 µM
same,Cmax,[16],3520 ng/mL
same,IC50,Cytochrome P450 2C19,30.3 µM
same,Activity,[17],Non-Toxic
same,AUC(0-t),[18],1100 ng·h/mL
same,Tmax,[19],35 min
same,EC50,[20],> 39.2 µM
same,Activity,[21],Non-Toxic
same,Vd,[22],0.698 L/kg
same,AUC(0-t),[23],8660 ng·h/mL
same,EC50,[24],2.64 µM
same,AUC(0-inf),[25],9560 ng·h/mL
same,half-life,[26],151 min
same,IC50,Cytochrome P450 3A4 [27],> 50 µM
same,IC50,[28],> 40 µM
same,Activity,[29],Non-Toxic
same,IC50,[30],0.03 µM
same,Cmax,[31],2030 ng/mL
same,CC50,[32],39.2 µM
same,bioavailability,[33],86.7%
same,EC50,[34],0.38 µM
same,IC50,Cytochrome P450 1A2,> 50 µM
O=c1[nH]c(=O)n(COCc2ccccc2)c(Sc2ccccc2Br)c1C1CC1,EC50,[1],2.66 µM
same,EC50,[2],0.15 µM
same,selectivity ratio,[10],184
same,EC50,[15],0.41 µM
same,EC50,[20],> 27.2 µM
same,EC50,[24],7.21 µM
same,IC50,[30],0.16 µM
same,CC50,[32],27.2 µM
same,EC50,[34],0.54 µM
O=c1[nH]c(=O)n(COCc2ccccc2)c(Sc2cccc(Cl)c2)c1C1CC1,EC50,[1],3.28 µM
same,EC50,[2],0.048 µM
same,selectivity ratio,[10],613
same,EC50,[15],0.19 µM
same,EC50,[20],> 29.7 µM
same,EC50,[24],3.74 µM
same,IC50,[30],0.06 µM
same,CC50,[32],29.7 µM
same,EC50,[34],0.36 µM
O=c1[nH]c(=O)n(COCc2ccccc2)c(Sc2cccc(Br)c2)c1C1CC1,EC50,[1],3.09 µM
same,EC50,[2],0.11 µM
same,selectivity ratio,[10],239
same,EC50,[15],0.24 µM
same,EC50,[20],> 26.5 µM
same,EC50,[24],3.64 µM
same,IC50,[30],0.07 µM
same,CC50,[32],26.5 µM
same,EC50,[34],0.37 µM
O=c1[nH]c(=O)n(COCc2ccccc2)c(Sc2ccc(Cl)cc2Cl)c1C1CC1,EC50,[1],≥ 11.1 µM
same,EC50,[2],5.3 µM
same,selectivity ratio,[10],6
same,EC50,[15],> 30 µM
same,EC50,[20],> 30 µM
same,EC50,[24],> 30 µM
same,IC50,[30],5.56 µM
same,CC50,[32],34 µM
same,EC50,[34],4.43 µM
O=c1[nH]c(=O)n(COCc2ccccc2)c(Sc2ccc(Cl)cc2)c1C1CC1,EC50,[1],3.78 µM
same,EC50,[2],4.46 µM
same,selectivity ratio,[10],7
same,EC50,[15],> 30.3 µM
same,EC50,[20],> 30.3 µM
same,EC50,[24],> 30.3 µM
same,IC50,[30],5.78 µM
same,CC50,[32],30.2 µM
same,EC50,[34],4.48 µM
Cc1cccc(C)c1Sc1c(C2CC2)c(=O)[nH]c(=O)n1COCc1ccccc1,EC50,[1],> 30.3 µM
same,EC50,[2],4.36 µM
same,selectivity ratio,[10],7
same,EC50,[15],> 30.3 µM
same,EC50,[20],> 30.3 µM
same,EC50,[24],> 30.3 µM
same,IC50,[30],6.12 µM
same,CC50,[32],30.3 µM
same,EC50,[34],> 7.42 µM
